In patent US7297707B2, “Benzothiazolyl derivatives” (Hoffmann-La Roche Inc., priority 2003, dated 2007):

target: T1, human cannabis CB1 receptor (Homo sapiens, UniProt P21554); assay: Affinity for cannabinoid CB1 receptors, [3H]-CP-55,940 radioligand binding on HEK cell membranes; settings: affinity for the CB1 receptor, [3H]-CP-55,940, HEK membranes
T1 construct: expressed in transfected cells; host or cells: human embryonic kidney (HEK) cells, Semliki Forest Virus system, membrane preparation
Procedure: The affinity of the compounds of the invention for cannabinoid CB1 receptors was determined using membrane preparations of human embryonic kidney (HEK) cells in which the human cannabis CB1 receptor is transiently transfected using the Semliki Forest Virus system in conjunction with [3H]-CP-55,940 as radioligand. After incubation of a freshly prepared cell membrane preparation with the [3H]-ligand, with or without addition of compounds of the invention, separation of bound and free ligand was performed by filtration over glassfiber filters. Radioactivity on the filter was measured by liquid scintillation counting.

T1 sequence (P21554 whole entry): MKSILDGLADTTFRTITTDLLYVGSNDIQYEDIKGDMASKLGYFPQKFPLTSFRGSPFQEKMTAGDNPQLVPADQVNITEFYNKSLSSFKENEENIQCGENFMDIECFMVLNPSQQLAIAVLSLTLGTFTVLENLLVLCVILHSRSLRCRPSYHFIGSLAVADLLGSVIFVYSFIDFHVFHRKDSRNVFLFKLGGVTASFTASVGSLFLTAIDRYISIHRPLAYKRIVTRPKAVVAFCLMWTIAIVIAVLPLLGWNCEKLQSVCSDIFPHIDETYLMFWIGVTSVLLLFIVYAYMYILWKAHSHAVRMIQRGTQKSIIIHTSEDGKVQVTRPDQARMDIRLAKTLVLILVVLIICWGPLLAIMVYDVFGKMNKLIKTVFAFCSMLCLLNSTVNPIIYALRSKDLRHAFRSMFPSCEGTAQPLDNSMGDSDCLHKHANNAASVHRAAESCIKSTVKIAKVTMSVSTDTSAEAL

Compound | IC50
COc1ccc(N(C(=O)c2ccc([N+](=O)[O-])cc2Cl)c2nc3ccccc3s2)cc1 [Example 12, N-Benzothiazol-2-yl-2-chloro-N-(4-methoxy-phenyl)-4-nitro-benzamide] | 2.48 µM
COc1ccc(N(C(=O)c2ccc(Cl)cc2Cl)c2nc3ccc(NC(=O)Cc4ccccc4)cc3s2)cc1OC [Example 52, 2,4-Dichloro-N-(3,4-dimethoxy-phenyl)-N-(6-phenylacetylamino-benzothiazol-2-yl)-benzamide] | 1.59 µM
COc1ccc(N(C(=O)c2ccccc2Cl)c2nc3ccc(NS(=O)(=O)N(C)C)cc3s2)cc1OC [Example 57, N-[6-(Dimethylamino-1-sulfonylamino)-benzothiazol-2-yl]-2-chloro-N-(3,4-dimethoxy-phenyl)-benzamide] | 1.42 µM

Continued, values first:

IC50 | Compound
0.73 µM | Cc1cc(Cl)ccc1N(C(=O)c1ccc(Cl)cc1Cl)c1nc2ccccc2s1 [Example 8, N-Benzothiazol-2-yl-2,4-dichloro-N-(4-chloro-2-methyl-phenyl)-benzamide]
1.96 µM | COc1ccc(N(C(=O)c2ccc(C(F)(F)F)cc2F)c2nc3ccccc3s2)cc1 [Example 9, N-Benzothiazol-2-yl-2-fluoro-N-(4-methoxy-phenyl)-4-trifluoromethyl-benzamide]
1.38 µM | CCN(CC)c1ccc(N(C(=O)c2ccc([N+](=O)[O-])cc2Cl)c2nc3ccccc3s2)cc1 [Example 28, N-Benzothiazol-2-yl-2-chloro-N-(4-diethylamino-phenyl)-4-nitro-benzamide]
0.83 µM | COc1ccc(N(C(=O)c2ccc(Cl)cc2Cl)c2nc3ccc(N)cc3s2)cc1OC [Example 45, N-(6-Amino-benzothiazol-2-yl)-2,4-dichloro-N-(3,4-dimethoxy-phenyl)-benzamide]

test system: not given; assay: not given; settings: doses of 5, 10 and 20 mg daily; cited from earlier work

Compound | body weight compared to placebo
Cc1c(C(=O)NN2CCCCC2)nn(-c2ccc(Cl)cc2Cl)c1-c1ccc(Cl)cc1 [SR141716A] | significantly reduced body weight
